# Reference: patent US10925858B2, “S-nitrosoglutathione (GSNO) and GSNO reductase inhibitors for use in therapy” (MUSC FOUNDATION FOR RESEARCH DEVELOPMENT, priority 2017, dated 2021)
# Columns and labels:
# [1] = molecular target: GSNOR (Homo sapiens, UniProt P11766); settings: description of the compound; cited from earlier work
# [2] = system: hBMVECs; assay: Assay of trans-endothelial electrical resistance (TEER) in thrombin treated hBMVECs; assay type: cell-based, human; settings: thrombin 0.1 unit/ml; GSNO 100 μM or SIN-1 500 μM pretreated 2 hr
# Method: Cell culture: Primary human brain microvascular endothelial cells (hBMVECs) were purchased from Angio-Proteomie (Cat #: cAP-0002, Atlanta, Ga.). The cells were cultured in cell culture flasks or plates precoated with Quick Coating Solution (Angio-Proteomie; Cat #: cAP-01) and maintained in Endothelial Growth Medium (Angio-Proteomie; Cat #: cAP-02) at 37° C. under 5% CO2/95% air. When the cells were almost confluent, the medium was replaced with endothelial basal medium (Angio-Proteomie; Cat #: cAP-03) containing 0.5% fetal bovine serum (FBS; Life Technologies, Grand Island, N.Y.) about 8-12 hours before the experiment. No institutional approval was required for this study. The study was not pre-registered. For evaluation of the endothelial barrier function, hBMVECs were plated on fibronectin-coated polycarbonate filters (Transwell system, Corning, Midland, N.C.) containing Endothelial Growth Medium (Angio-Proteomie Cat #: cAP-02). The medium was renewed every other day. Five days after seeding, the medium was replaced with Endothelial Basal Medium (Angio-Proteomie Cat #: cAP-03) containing 0.5% FBS and incubated for 2 days. Following drug treatments, transendothelial electrical resistance (TEER) was measured by EVOM2 (Word Precision Instruments) as described previously (Li et al., 2006).
# [3] = system: cell adhesion molecules (ICAM-1 and VCAM-1); assay: Real-time PCR, mRNA expression of cell adhesion molecules in diabetic mice; assay type: in vivo; settings: cortex and hippocampus, GSNO supplemented diabetic animals
# Method: Male laca mice weighing between 28-32 g were procured from the Central Animal House, Panjab University, Chandigarh. The animals were acclimatized and were fed with standard pellet diet and water ad libitum. The experimental protocols were approved by the Institutional Ethics Committee and were conducted according to Indian National Science Academy (INSA) guidelines for the use and care of experimental animals. […] Animals were assessed weekly for development of diabetic encephalopathy in terms of memory deficits. […]
# (§1) PCR Total RNA was extracted from microvessels obtained from brain tissue using TriReagent®. […] The concentration of RNA obtained was determined by 260/280 nm ratio using a Nanodrop™ Spectrophotometer (Nanodrop™ 1000, Thermo Scientific®, Waltham, USA). The integrity and overall quality of RNA was evaluated using agarose gel electrophoresis. […] The data obtained was analyzed by the LightCycler 480 Software, Version 1.5. […] Glyceraldehyde-3-phosphate dehydrogenase was used as the reference gene and the relative gene expression was determined using delta-delta Ct method as described by Pfaffl et al., (2002).
# [4] = system: tight junction proteins (ZO-1, Occludin, Claudin-5); assay: Real-time PCR, mRNA expression of tight junction proteins in brain microvessels of diabetic mice; assay type: in vivo
# Method: Male laca mice weighing between 28-32 g were procured from the Central Animal House, Panjab University, Chandigarh. The animals were acclimatized and were fed with standard pellet diet and water ad libitum. The experimental protocols were approved by the Institutional Ethics Committee and were conducted according to Indian National Science Academy (INSA) guidelines for the use and care of experimental animals. The animals were divided into four groups: (i) Control animals received phosphate buffered saline (PBS) throughout the study; (ii) Control+GSNO animals were administered with GSNO 100 μg/kg body weight orally, dissolved in PBS after every 24 h for 8 weeks; (iii) Diabetic animals were injected with STZ at a dose of 40 mg/kg body weight intraperitoneally for 5 days dissolved in 0.1 mol/L citrate buffer, pH 4.5 and Diabetic+GSNO mice were administered GSNO 100 μg/kg body weight orally dissolved in PBS after every 24 h for 8 weeks after the induction of diabetes. Animals were assessed weekly for development of diabetic encephalopathy in terms of memory deficits. All experimental procedures were done on mice at the end of study.
# The microvessels were isolated by the method described by Brooks et al., (2005). Brain tissue was homogenized in microisolation buffer (103 mM NaCl, 4.7 mM KCl, 2.5 mM CaCb, 1.2 mM KH2PO4, 1.2 mM MgSO4, 15 mM HEPES, 2.5 mM NaHCO3, 10 mM D-glucose, 1 mM sodium pyruvate and 10 g/L dextran (64,000 mol wt), pH 7.4) and equal amount of 26% (w/v) dextran was added. […]
# as §1
# [5] = cortex and hippocampus, diabetic mice + GSNO 100 μg/kg oral 8 weeks, vs diabetic
# GSNOR, sequence (P11766 whole entry): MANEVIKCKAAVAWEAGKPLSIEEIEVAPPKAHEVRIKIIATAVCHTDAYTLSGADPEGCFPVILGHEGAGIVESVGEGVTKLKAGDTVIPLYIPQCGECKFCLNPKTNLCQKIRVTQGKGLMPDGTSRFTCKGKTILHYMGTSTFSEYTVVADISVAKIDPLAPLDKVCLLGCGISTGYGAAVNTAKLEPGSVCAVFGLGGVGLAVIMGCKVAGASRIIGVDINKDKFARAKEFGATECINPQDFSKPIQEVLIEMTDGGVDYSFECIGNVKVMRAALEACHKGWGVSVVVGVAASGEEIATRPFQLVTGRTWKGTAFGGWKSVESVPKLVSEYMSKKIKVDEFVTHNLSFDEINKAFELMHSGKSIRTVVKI
SMILES,inhibition of GSNOR [1],thrombin-induced loss of TEER [2],mRNA expression of ICAM-1 [3],mRNA expression of claudin-5 ([4]; GSNO treated diabetic animals),"mRNA expression of ZO-1 [4, 5] [fold]","mRNA expression of occludin [4, 5] [fold]"
"Cc1cc(C(N)=O)ccc1-n1c(CCC(=O)O)ccc1-c1ccc(-n2ccnc2)cc1 [N6022, reference compound]","very potent, specific, and reversible inhibitor",–,–,–,–,–
"N[C@@H](CCC(=O)N[C@@H](CSN=O)C(=O)NCC(=O)O)C(=O)O [GSNO, S-nitrosoglutathione]",–,inhibited,comparable to control levels,no significant change,2,2
